# From PubChem BioAssay AID2060508 (Molecular Pharmacology Branch, DTP, NCI, 2025)
# System: 454973-116-R2-J3-PDC spheroids, viability, % test/control
# Test: Anticancer human tumor 454973-116-R2-J3-PDC patient-derived pancreatic carcinoma cell line growth inhibition [GQUAD]
# Settings: second compound 10 µM; first compound 0.0316 µM; stronger effect = lower value; spheroids with HUVEC and MSC
# Method in brief: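 Viability of tumor cells grown as complex spheroids with endothelial and stromal cells, exposed to drug combinations. Top concentration at or near clinical Cmax (else 10 microM), diluted in half-log increments.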
# 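Also: spheroids exposed to compounds for seven days; 100% = DMSO vehicle control viability.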
row,Compound,"viability, T/C"
1,COc1ncnc(C2CC2)c1-c1ncc2cnn(Cc3ccc(-c4nc(C(F)(F)F)cn4C(C)C)cc3)c2n1 + Cc1[nH]c2ccc(F)cc2c1-c1nc2c3cccnc3c3ncccc3c2[nH]1,102%
2,CC(C)n1c(=O)n(C)c2cnc3cc(F)c(-c4ccc(OCCCN5CCCCC5)nc4)cc3c21 + Cc1cnc(CNC(=O)c2c(=O)c3ccc(N4CCCN(C)CC4)nc3n3c2sc2ccccc23)cn1,0.28%
3,CC1COCCN1c1cc(-c2ccnn2C)c2ccnc(-c3ccn[nH]3)c2n1 (configuration not stated) + Cc1cnc(CNC(=O)c2c(=O)c3ccc(N4CCCN(C)CC4)nc3n3c2sc2ccccc23)cn1,0.13%
4,CC1COCCN1c1cc(C2(S(C)(=N)=O)CC2)nc(-c2ccnc3[nH]ccc23)n1 (configuration not stated) + Cc1cnc(CNC(=O)c2c(=O)c3ccc(N4CCCN(C)CC4)nc3n3c2sc2ccccc23)cn1,0.26%
5,Cn1ncnc1[C@H]1c2n[nH]c(=O)c3cc(F)cc(c23)N[C@@H]1c1ccc(F)cc1 + Cc1cnc(CNC(=O)c2c(=O)c3ccc(N4CCCN(C)CC4)nc3n3c2sc2ccccc23)cn1,36.7%

# Same assay, conditions: second compound 10 µM; first compound 0.0999 µM; stronger effect = lower value; spheroids with HUVEC and MSC
row,Compound,"viability, T/C"
1,Cn1ncnc1[C@H]1c2n[nH]c(=O)c3cc(F)cc(c23)N[C@@H]1c1ccc(F)cc1 + Cc1cnc(CNC(=O)c2c(=O)c3ccc(N4CCCN(C)CC4)nc3n3c2sc2ccccc23)cn1,0.53%

# Same assay, conditions: second compound 10 µM; first compound 0.1 µM; stronger effect = lower value; spheroids with HUVEC and MSC
row,Compound,"viability, T/C"
1,COc1ncnc(C2CC2)c1-c1ncc2cnn(Cc3ccc(-c4nc(C(F)(F)F)cn4C(C)C)cc3)c2n1 + Cc1[nH]c2ccc(F)cc2c1-c1nc2c3cccnc3c3ncccc3c2[nH]1,92.9%
2,CC(C)n1c(=O)n(C)c2cnc3cc(F)c(-c4ccc(OCCCN5CCCCC5)nc4)cc3c21 + Cc1cnc(CNC(=O)c2c(=O)c3ccc(N4CCCN(C)CC4)nc3n3c2sc2ccccc23)cn1,0.31%
3,CC1COCCN1c1cc(-c2ccnn2C)c2ccnc(-c3ccn[nH]3)c2n1 (configuration not stated) + Cc1cnc(CNC(=O)c2c(=O)c3ccc(N4CCCN(C)CC4)nc3n3c2sc2ccccc23)cn1,0.16%
4,CC1COCCN1c1cc(C2(S(C)(=N)=O)CC2)nc(-c2ccnc3[nH]ccc23)n1 (configuration not stated) + Cc1cnc(CNC(=O)c2c(=O)c3ccc(N4CCCN(C)CC4)nc3n3c2sc2ccccc23)cn1,0.49%

# Same assay, conditions: second compound 10 µM; first compound 0.316 µM; stronger effect = lower value; spheroids with HUVEC and MSC
row,Compound,"viability, T/C"
1,COc1ncnc(C2CC2)c1-c1ncc2cnn(Cc3ccc(-c4nc(C(F)(F)F)cn4C(C)C)cc3)c2n1 + Cc1[nH]c2ccc(F)cc2c1-c1nc2c3cccnc3c3ncccc3c2[nH]1,96.7%
2,CC(C)n1c(=O)n(C)c2cnc3cc(F)c(-c4ccc(OCCCN5CCCCC5)nc4)cc3c21 + Cc1cnc(CNC(=O)c2c(=O)c3ccc(N4CCCN(C)CC4)nc3n3c2sc2ccccc23)cn1,14%
3,CC1COCCN1c1cc(-c2ccnn2C)c2ccnc(-c3ccn[nH]3)c2n1 (configuration not stated) + Cc1cnc(CNC(=O)c2c(=O)c3ccc(N4CCCN(C)CC4)nc3n3c2sc2ccccc23)cn1,2.37%
4,CC1COCCN1c1cc(C2(S(C)(=N)=O)CC2)nc(-c2ccnc3[nH]ccc23)n1 (configuration not stated) + Cc1cnc(CNC(=O)c2c(=O)c3ccc(N4CCCN(C)CC4)nc3n3c2sc2ccccc23)cn1,0.34%
5,Cn1ncnc1[C@H]1c2n[nH]c(=O)c3cc(F)cc(c23)N[C@@H]1c1ccc(F)cc1 + Cc1cnc(CNC(=O)c2c(=O)c3ccc(N4CCCN(C)CC4)nc3n3c2sc2ccccc23)cn1,0.27%

# Same assay, conditions: second compound 10 µM; first compound 1 µM; stronger effect = lower value; spheroids with HUVEC and MSC
row,Compound,"viability, T/C"
1,COc1ncnc(C2CC2)c1-c1ncc2cnn(Cc3ccc(-c4nc(C(F)(F)F)cn4C(C)C)cc3)c2n1 + Cc1[nH]c2ccc(F)cc2c1-c1nc2c3cccnc3c3ncccc3c2[nH]1,86.8%
2,CC(C)n1c(=O)n(C)c2cnc3cc(F)c(-c4ccc(OCCCN5CCCCC5)nc4)cc3c21 + Cc1cnc(CNC(=O)c2c(=O)c3ccc(N4CCCN(C)CC4)nc3n3c2sc2ccccc23)cn1,0.33%
3,CC1COCCN1c1cc(-c2ccnn2C)c2ccnc(-c3ccn[nH]3)c2n1 (configuration not stated) + Cc1cnc(CNC(=O)c2c(=O)c3ccc(N4CCCN(C)CC4)nc3n3c2sc2ccccc23)cn1,0.14%
4,CC1COCCN1c1cc(C2(S(C)(=N)=O)CC2)nc(-c2ccnc3[nH]ccc23)n1 (configuration not stated) + Cc1cnc(CNC(=O)c2c(=O)c3ccc(N4CCCN(C)CC4)nc3n3c2sc2ccccc23)cn1,0.88%

# Same assay, conditions: second compound 10 µM; first compound 3.16 µM; stronger effect = lower value; spheroids with HUVEC and MSC
row,Compound,"viability, T/C"
1,COc1ncnc(C2CC2)c1-c1ncc2cnn(Cc3ccc(-c4nc(C(F)(F)F)cn4C(C)C)cc3)c2n1 + Cc1[nH]c2ccc(F)cc2c1-c1nc2c3cccnc3c3ncccc3c2[nH]1,83.5%
2,CC(C)n1c(=O)n(C)c2cnc3cc(F)c(-c4ccc(OCCCN5CCCCC5)nc4)cc3c21 + Cc1cnc(CNC(=O)c2c(=O)c3ccc(N4CCCN(C)CC4)nc3n3c2sc2ccccc23)cn1,0.3%
3,CC1COCCN1c1cc(-c2ccnn2C)c2ccnc(-c3ccn[nH]3)c2n1 (configuration not stated) + Cc1cnc(CNC(=O)c2c(=O)c3ccc(N4CCCN(C)CC4)nc3n3c2sc2ccccc23)cn1,0.16%
4,CC1COCCN1c1cc(C2(S(C)(=N)=O)CC2)nc(-c2ccnc3[nH]ccc23)n1 (configuration not stated) + Cc1cnc(CNC(=O)c2c(=O)c3ccc(N4CCCN(C)CC4)nc3n3c2sc2ccccc23)cn1,0.61%

# Same assay, conditions: second compound 10 µM; first compound 10 µM; stronger effect = lower value; spheroids with HUVEC and MSC
row,Compound,"viability, T/C"
1,COc1ncnc(C2CC2)c1-c1ncc2cnn(Cc3ccc(-c4nc(C(F)(F)F)cn4C(C)C)cc3)c2n1 + Cc1[nH]c2ccc(F)cc2c1-c1nc2c3cccnc3c3ncccc3c2[nH]1,95.1%
2,CC(C)n1c(=O)n(C)c2cnc3cc(F)c(-c4ccc(OCCCN5CCCCC5)nc4)cc3c21 + Cc1cnc(CNC(=O)c2c(=O)c3ccc(N4CCCN(C)CC4)nc3n3c2sc2ccccc23)cn1,0.25%
3,CC1COCCN1c1cc(-c2ccnn2C)c2ccnc(-c3ccn[nH]3)c2n1 (configuration not stated) + Cc1cnc(CNC(=O)c2c(=O)c3ccc(N4CCCN(C)CC4)nc3n3c2sc2ccccc23)cn1,0.17%
4,CC1COCCN1c1cc(C2(S(C)(=N)=O)CC2)nc(-c2ccnc3[nH]ccc23)n1 (configuration not stated) + Cc1cnc(CNC(=O)c2c(=O)c3ccc(N4CCCN(C)CC4)nc3n3c2sc2ccccc23)cn1,0.35%
